According to patent US8153795B2, “Substituted 1-oxa-3,8-diazaspiro[4.5]-decan-2-one-compounds and the use thereof for producing drugs” (Gruenenthal GmbH, priority 2005, dated 2012):

Target: T1, 5-HT transporter (Rattus norvegicus, UniProt P31652)
T1 construct: from tissue; host or cells: rat brain synaptosomes (P2 fraction) from medulla and pons
Experiment: 5-HT uptake inhibition in rat brain synaptosomes (medulla and pons), [3H]-5-HT
Assay type: biochemical
Excerpt: a) Method for Determining Noradrenalin and 5-HT Uptake Inhibition:
Synaptosomes from rat brain regions are freshly isolated for in vitro studies, as described in the publication “The isolation of nerve endings from brain” by E. G. Gray and V. P. Whittaker, J. Anatomy 96, pages 79-88, 1962. The corresponding literature description is hereby introduced as a reference and is deemed to be part of the disclosure.
The tissue (hypothalamus for the determination of noradrenalin uptake inhibition and medulla and pons for the determination of 5-HT uptake inhibition) is homogenised in ice-cooled 0.32 M sucrose (100 mg of tissue/1 mL) in a glass homogeniser with Teflon pestle using five complete up and down strokes at 840 revolutions/minute.
The homogenate is centrifuged at 4° C. for 10 minutes at 1000 g. After subsequent centrifugation at 17000 g for 55 minutes, the synaptosomes (P2 fraction) are obtained, which are resuspended in 0.32 M […] (0.5 mL/100 mg of original weight).
The particular uptake is measured in a 96-well microtitre plate. The volume is 250 μl and the incubation proceeds at room temperature (approx. 20-25° C.) under an O2 atmosphere.
The incubation time is 7.5 minutes for [^3H]-NA and 5 minutes for [^3H]-5-HT. The 96 samples are then filtered through a Unifilter GF/B® microtitre plate (Packard) and washed with 200 mL of incubated buffer using a “Brabdel MPXRI-96T Cell-Harvester”. The Unifilter GF/B plate is dried for 1 hour at 55° C. The plate is then sealed with a Back Seal® (Packard) and 35 μl of scintillation fluid are added per well (Ultima Gold®, Packard). After sealing with a top Seal® (Packard) and establishing an equilibrium (around 5 hours), radioactivity is determined in a “Trilux 1450 Microbeta” (Wallac).
The quantity of protein used in the above determination corresponds to the values known from the literature, as for example described in “Protein measurement with the folin phenol reagent”, Lowry et al., J. Biol. Chem., 193, 265-275, 1951.
A detailed description of the method may additionally be found in the literature, for example in M. Ch. Frink, H.-H. Hennies, W. Engelberger, M. Haurand and B. Wilffert (1996) Arzneim.-Forsch./Drug Res. 46 (III), 11, 1029-1036.

T1 sequence (P31652 whole entry): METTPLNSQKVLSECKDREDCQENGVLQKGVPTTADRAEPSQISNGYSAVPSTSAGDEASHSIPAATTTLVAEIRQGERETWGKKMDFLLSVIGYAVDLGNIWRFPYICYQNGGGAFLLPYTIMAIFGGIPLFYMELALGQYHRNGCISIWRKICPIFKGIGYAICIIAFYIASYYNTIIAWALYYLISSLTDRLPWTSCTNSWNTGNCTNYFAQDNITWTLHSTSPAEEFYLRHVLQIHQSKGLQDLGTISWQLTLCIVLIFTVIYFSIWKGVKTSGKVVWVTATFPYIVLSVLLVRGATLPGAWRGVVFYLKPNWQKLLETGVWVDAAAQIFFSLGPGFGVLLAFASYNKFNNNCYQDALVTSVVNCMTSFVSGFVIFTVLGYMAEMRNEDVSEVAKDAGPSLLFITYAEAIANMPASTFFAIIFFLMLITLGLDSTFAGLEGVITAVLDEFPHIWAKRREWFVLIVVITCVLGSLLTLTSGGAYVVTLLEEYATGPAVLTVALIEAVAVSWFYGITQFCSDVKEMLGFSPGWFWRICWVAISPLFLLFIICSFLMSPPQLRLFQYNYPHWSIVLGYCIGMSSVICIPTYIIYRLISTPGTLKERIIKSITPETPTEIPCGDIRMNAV

In order of falling inhibition at 10 µM:
1. COc1ccc([N+](=O)[O-])cc1CN1CC2(CCN(C(=O)Nc3cccc(C#N)c3)CC2)OC1=O [Example 51, 3-(2-methoxy-5-nitrobenzyl)-2-oxo-1-oxa-3,8-diazaspiro[4.5]decane-8-carboxylic acid (3-cyanophenyl)amide]  89%
2. Cc1cc(C)cc(CN2CC3(CCN(C(=O)c4c(-c5ccccc5Cl)noc4C)CC3)OC2=O)c1 [Example 101, 8-[3-(2-chlorophenyl)-5-methylisoxazole-4-carbonyl]-3-(3,5-dimethylbenzyl)-1-oxa-3,8-diazaspiro[4.5]decan-2-one]  84%
3. N#Cc1ccc(CN2CC3(CCN(C(=O)c4ccc(-c5ccccc5)cc4)CC3)OC2=O)cc1 [Example 115, 4-[8-(biphenyl-4-carbonyl)-2-oxo-1-oxa-3,8-diazaspiro[4.5]dec-3-ylmethyl]benzonitrile]  84%
4. O=C1OC2(CCN(C(=O)c3cccnc3Oc3ccccc3)CC2)CN1Cc1cccc(Br)c1 [Example 144, 3-(3-bromobenzyl)-8-(2-phenoxypyridine-3-carbonyl)-1-oxa-3,8-diazaspiro[4.5]decan-2-one]  81%
5. Cc1cc(C)cc(CN2CC3(CCN(C(=O)c4ccccc4Cl)CC3)OC2=O)c1 [Example 108, 8-(2-chlorobenzoyl)-3-(3,5-dimethylbenzyl)-1-oxa-3,8-diazaspiro[4.5]decan-2-one]  77%
6. CCSc1ncccc1C(=O)N1CCC2(CC1)CN(Cc1cccc(Br)c1)C(=O)O2 [Example 121, 3-(3-bromobenzyl)-8-(2-ethylsulfanylpyridine-3-carbonyl)-1-oxa-3,8-diazaspiro[4.5]decan-2-one]  77%
7. COc1cccc(CC(=O)N2CCC3(CC2)CN(Cc2cc([N+](=O)[O-])ccc2OC)C(=O)O3)c1 [Example 145, 3-(2-methoxy-5-nitrobenzyl)-8-[2-(3-methoxyphenyl)acetyl]-1-oxa-3,8-diazaspiro[4.5]decan-2-one]  77%
8. Cc1cc(C)cc(CN2CC3(CCN(S(=O)(=O)Cc4ccccc4Cl)CC3)OC2=O)c1 [Example 116, 8-(2-chlorobenzylsulfonyl)-3-(3,5-dimethylbenzyl)-1-oxa-3,8-diazaspiro[4.5]decan-2-one]  76%
9. CC(=O)OC(C(=O)N1CCC2(CC1)CN(Cc1cc(C)cc(C)c1)C(=O)O2)c1ccccc1 (stereo not shown) [Example 105, acetic acid 2-[3-(3,5-dimethylbenzyl)-2-oxo-1-oxa-3,8-diazaspiro[4.5]dec-8-yl]-2-oxo-1-phenylethyl ester]  74%
10. COc1cc(C)c(CS(=O)(=O)N2CCC3(CC2)CN(Cc2cc(C)cc(C)c2)C(=O)O3)c(C)c1C [Example 114, 3-(3,5-dimethylbenzyl)-8-(4-methoxy-2,3,6-trimethylbenzylsulfonyl)-1-oxa-3,8-diazaspiro[4.5]decan-2-one]  73%
11. Cc1cc(C)cc(CN2CC3(CCN(C(=O)c4ccc5nonc5c4)CC3)OC2=O)c1 [Example 117, 8-(benzo[1,2,5]oxadiazole-5-carbonyl)-3-(3,5-dimethylbenzyl)-1-oxa-3,8-diazaspiro[4.5]decan-2-one]  73%
12. N#Cc1ccccc1CN1CC2(CCN(C(=O)c3ccc([N+](=O)[O-])cc3Cl)CC2)OC1=O [Example 151, 2-[8-(2-chloro-4-nitrobenzoyl)-2-oxo-1-oxa-3,8-diazaspiro[4.5]dec-3-ylmethyl]benzonitrile]  71%
13. COc1ccc([N+](=O)[O-])cc1CN1CC2(CCN(C(=O)Nc3cc(F)ccc3F)CC2)OC1=O [Example 26, 3-(2-methoxy-5-nitrobenzyl)-2-oxo-1-oxa-3,8-diazaspiro[4.5]decane-8-carboxylic acid (2,5-difluorophenyl)amide]  70%
14. N#Cc1cccc(CN2CC3(CCN(S(=O)(=O)Cc4cccc(Br)c4)CC3)OC2=O)c1 [Example 135, 3-[8-(3-bromobenzylsulfonyl)-2-oxo-1-oxa-3,8-diazaspiro[4.5]dec-3-ylmethyl]benzonitrile]  69%
15. Cc1cc(C)cc(CN2CC3(CCN(C(=O)c4ccccn4)CC3)OC2=O)c1 [Example 119, 3-(3,5-dimethylbenzyl)-8-(pyridine-2-carbonyl)-1-oxa-3,8-diazaspiro[4.5]decan-2-one]  67%
16. CCc1ccc(CS(=O)(=O)N2CCC3(CC2)CN(Cc2cccc(Br)c2)C(=O)O3)cc1 [Example 102, 3-(3-bromobenzyl)-8-(4-ethylbenzylsulfonyl)-1-oxa-3,8-diazaspiro[4.5]decan-2-one]  67%
17. O=C1OC2(CCN(C(=O)c3ccc(-c4ccccc4)cc3)CC2)CN1Cc1ccc(I)cc1 [Example 118, 8-(biphenyl-4-carbonyl)-3-(4-iodobenzyl)-1-oxa-3,8-diazaspiro[4.5]decan-2-one]  66%
18. CCOC(=O)c1ccc(NC(=O)N2CCC3(CC2)CN(Cc2ccc4ccccc4c2)C(=O)O3)cc1 [Example 30, 4-[(3-naphthalen-2-ylmethyl-2-oxo-1-oxa-3,8-diazaspiro[4.5]decane-8-carbonyl)amino]benzoic acid ethyl ester]  65%
19. N#Cc1ccc(CN2CC3(CCN(C(=O)C4CC4c4ccccc4)CC3)OC2=O)cc1 (stereo not shown) [Example 106, 4-[2-oxo-8-(2-phenylcyclopropanecarbonyl)-1-oxa-3,8-diazaspiro[4.5]dec-3-ylmethyl]benzonitrile]  63%
20. COc1ccc([N+](=O)[O-])cc1CN1CC2(CCN(C(=O)c3cc(C(C)(C)C)oc3C)CC2)OC1=O [Example 125, 8-(5-tert-butyl-2-methylfuran-3-carbonyl)-3-(2-methoxy-5-nitrobenzyl)-1-oxa-3,8-diazaspiro[4.5]decan-2-one]  63%
21. O=C1OC2(CCN(C(=O)c3cccnc3Oc3ccccc3)CC2)CN1Cc1ccc(F)c(F)c1 [Example 146, 3-(3,4-difluorobenzyl)-8-(2-phenoxypyridine-3-carbonyl)-1-oxa-3,8-diazaspiro[4.5]decan-2-one]  63%
22. COc1ccc(OC)c(NC(=O)N2CCC3(CC2)CN(Cc2ccc4ccccc4c2)C(=O)O3)c1 [Example 55, 3-naphthalen-2-ylmethyl-2-oxo-1-oxa-3,8-diazaspiro[4.5]decane-8-carboxylic acid (2,5-dimethoxyphenyl)amide]  61%
23. COc1ccc([N+](=O)[O-])cc1CN1CC2(CCN(C(=S)NCc3ccccc3)CC2)OC1=O [Example 23, 3-(2-methoxy-5-nitrobenzyl)-2-oxo-1-oxa-3,8-diazaspiro[4.5]decane-8-carbothioic acid benzylamide]  60%
24. CC(CC(=O)O)CC(=O)N1CCC2(CC1)CN(Cc1ccccc1-c1ccccc1)C(=O)O2 (stereo not shown) [Example 73, 5-(3-biphenyl-2-ylmethyl-2-oxo-1-oxa-3,8-diazaspiro[4.5]dec-8-yl)-3-methyl-5-oxopentanoic acid]  57%
25. N#Cc1ccccc1CN1CC2(CCN(C(=O)Nc3cc(F)ccc3F)CC2)OC1=O [Example 32, 3-(2-cyanobenzyl)-2-oxo-1-oxa-3,8-diazaspiro[4.5]decane-8-carboxylic acid (2,5-difluorophenyl)amide]  56%
26. Cc1ccc(CN2CC3(CCN(C(=O)NCCc4ccccc4)CC3)OC2=O)cc1 [Example 45, 3-(4-methylbenzyl)-2-oxo-1-oxa-3,8-diazaspiro[4.5]decane-8-carboxylic acid phenethylamide]  51%
27. COc1ccc(Cl)cc1NC(=O)N1CCC2(CC1)CN(Cc1ccc(C#N)cc1)C(=O)O2 [Example 58, 3-(4-cyanobenzyl)-2-oxo-1-oxa-3,8-diazaspiro[4.5]decane-8-carboxylic acid (5-chloro-2-methoxyphenyl)amide]  49%
28. COc1ccc(NC(=O)N2CCC3(CC2)CN(Cc2ccc(C#N)cc2)C(=O)O3)cc1 [Example 47, 3-(4-cyanobenzyl)-2-oxo-1-oxa-3,8-diazaspiro[4.5]decane-8-carboxylic acid (4-methoxyphenyl)amide]  49%
29. CCCCOc1ccc(NC(=O)N2CCC3(CC2)CN(Cc2ccc(I)cc2)C(=O)O3)cc1 [Example 41, 3-(4-iodobenzyl)-2-oxo-1-oxa-3,8-diazaspiro[4.5]decane-8-carboxylic acid (4-butoxyphenyl)amide]  49%
30. CC(NC(=O)N1CCC2(CC1)CN(Cc1ccccc1)C(=O)O2)c1ccccc1 (stereo not shown) [Example 43, 3-benzyl-2-oxo-1-oxa-3,8-diazaspiro[4.5]decane-8-carboxylic acid (1-phenylethyl)amide]  49%
31. Cc1ccc2ccccc2c1CN1CCC2(CC1)CN(Cc1ccccc1C(F)(F)F)C(=O)O2 [Example 83, 8-(2-methylnaphthalen-1-ylmethyl)-3-(2-trifluoromethylbenzyl)-1-oxa-3,8-diazaspiro[4.5]decan-2-one]  41%
